The source of these data is US9234006B2, “Compounds” (Novacta Biosystems Limited, priority 2011, dated 2016).

Holding throughout (test): MIC susceptibility testing, broth microdilution in CaMHB
Assay [1] relates to E. coli ATCC25922. Format: cell-based, Escherichia coli. As to conditions: Table 4A, different batches of cation-adjusted Muller-Hinton broth. As for the experimental part: (§1) To evaluate the potency and spectrum of the compounds, susceptibility testing was performed against four strains of each of the four Gram negative pathogens, Escherichia coli, Pseudomonas aeruginosa, Klebsiella pneumoniae and Acinetobacter baumannii.
(§2) The day before testing, 3 to 4 colonies were picked from fresh Mueller-Hinton Agar (MHA) plate and transferred into 10 mL of Cation adjusted MHB (CaMHB). Cultures were incubated at 37° C. 250 rpm for 18-20 hours before being diluted 100-fold in fresh CaMHB. The subcultures were grown further until the OD600 reached 0.2-0.3 corresponding to […]. The actively growing cultures were diluted 100-fold in fresh medium and used for the inoculum.
(§3) The assays were performed in duplicate.
(§4) Data was obtained under similar conditions to Table 4 except that different batches of cation-adjusted Muller-Hinton broth were used. The MIC values for these compounds are compared with those values obtained for Polymyxin B, Colistin Sulphate, CB-182,804 and NAB739 (as the TFA salt). CB-182,804 is a polymyxin decapeptide derivative with an aryl urea substituent at the N-terminus, which has been claimed to have lower toxicity than Polymyxin B (compound 5 in WO 2010/075416. See page 37). NAB739 has been described previously by Vaara et al.

In assay [2] the test system is P. aeruginosa ATCC27853. Format: cell-based, Pseudomonas aeruginosa. As to conditions: Table 4A, different batches of cation-adjusted Muller-Hinton broth. As for the experimental part:
as §1, §2, §3, §4

For assay [3], the system named is A. baumannii ATCC19606. In kind it is cell-based, Acinetobacter baumannii. As to conditions: Table 4A, different batches of cation-adjusted Muller-Hinton broth. As for the experimental part:
as §1, §2, §3, §4

Assay [4] relates to K. pneumoniae ATCC 4352. In kind it is cell-based, Klebsiella pneumoniae. The note with it: K. pneumoniae ATCC4352; Table 4A, different batches of cation-adjusted Muller-Hinton broth. As for the experimental part:
as §1, §2, §3, §4

Molecules are shown by their SMILES. *1 amine or outer side, *2 acyl side, *3 side chain or, on linkers, in order; H or OH if unused. Where a SMILES comes first, the peptide text is derived from it. Bridges are numbered along the chain shown (N, C = ends). [ ]: non-standard residue; d: D form. The star is where a group is joined. ξ: configuration not given here. Achc(trans-4) = O=C([C@H]1CC[C@H](N[*:1])CC1)[*:2]; Octanoyl(3-OH) = CCCCCC(O)CC(=O)*; NMeGABA = CN(CCCC(=O)[*:2])[*:1]; Thr(3ξ) = CC(O)[C@H](N)C(=O)O; ξAoc(2) = CCCCCCC(N)C(=O)O; NH(2-ClPh) = Clc1ccccc1N*; Dab = NCC[C@H](N)C(=O)O; X12 = O=C(CCCN1CCOCC1)*; X7 = NC1CCC(C(=O)*)CC1; X1 = CCCCCCC(O)C(=O)*; CO = O=C([*:1])[*:2]; Glycolyl = O=C(CO)*; GABA = NCCCC(=O)O; X9 = O=C(CCCCCO)*

With `CC(C)C[C@@H]1NC(=O)[C@@H](Cc2ccccc2)NC(=O)[C@H](CCN)NC(=O)[C@@H](NC(=O)[C@H](CCN)NC(=O)[C@@H](NC(=O)[C@H](CCN)NC(=O)Nc2ccccc2Cl)[C@@H](C)O)CCNC(=O)[C@H]([C@@H](C)O)NC(=O)[C@H](CCN)NC(=O)[C@H](CCN)NC1=O` [CB-182,804, reference compound] ({NH(2-ClPh)-CO}-[Dab]T[Dab][Dab][Dab][dF]L[Dab][Dab]T; lactam 4-C; N-terminus assumed), the MIC in assay [1] is on record as 2 micrograms/mL; in assay [2], 1 micrograms/mL; in assay [3], 0.5 micrograms/mL.
Turning to `CC(C)C[C@@H]1NC(=O)[C@@H](Cc2ccccc2)NC(=O)[C@H](CCN)NC(=O)[C@@H](NC(=O)[C@H](CCN)NC(=O)[C@@H](NC(=O)CO)C(C)O)CCNC(=O)[C@H](C(C)O)NC(=O)[C@H](CCN)NC(=O)[C@H](CCN)NC1=O` (stereo partly drawn) [Example 16, Hydroxyacetyl polymyxin B nonapeptide] (Glycolyl-[Thr(3ξ)][Dab][Dab][Dab][dF]L[Dab][Dab][Thr(3ξ)]; lactam 3-C), the MIC in assay [1] is listed as 32 micrograms/mL; in assay [2] it was 0.25 micrograms/mL; in assay [4] it was 8 micrograms/mL; in assay [3], 32 micrograms/mL.
`CCCCCC(O)CC(=O)N[C@H](C(=O)N[C@@H](CCN)C(=O)N[C@H]1CCNC(=O)[C@H](C(C)O)NC(=O)[C@H](CCN)NC(=O)[C@H](CCN)NC(=O)[C@H](CC(C)C)NC(=O)[C@@H](Cc2ccccc2)NC(=O)[C@H](CCN)NC1=O)C(C)O` (stereo partly drawn) [Example 17, 3-(R,S)-3-Hydroxyoctanoyl polymyxin B nonapeptide] ({Octanoyl(3-OH)}-[Thr(3ξ)][Dab][Dab][Dab][dF]L[Dab][Dab][Thr(3ξ)]; lactam 3-C): the MIC in assay [1] is listed as 8 micrograms/mL; in assay [2] it was 2 micrograms/mL; in assay [4], 8 micrograms/mL; in assay [3], 4 micrograms/mL.
As for `CC(C)C[C@@H]1NC(=O)[C@@H](Cc2ccccc2)NC(=O)[C@H](CCN)NC(=O)[C@@H](NC(=O)[C@H](CCN)NC(=O)[C@@H](NC(=O)CCCN2CCOCC2)C(C)O)CCNC(=O)[C@H](C(C)O)NC(=O)[C@H](CCN)NC(=O)[C@H](CCN)NC1=O` (stereo partly drawn) [Example 20, 4-Morpholinylbutanoyl polymyxin B nonapeptide] (X12-[Thr(3ξ)][Dab][Dab][Dab][dF]L[Dab][Dab][Thr(3ξ)]; lactam 3-C), the MIC in assay [1] is 4 micrograms/mL; in assay [2] it was 1 micrograms/mL; in assay [4] it was more than 32 micrograms/mL; in assay [3], more than 32 micrograms/mL.
Turning to `CC(C)C[C@@H]1NC(=O)[C@@H](Cc2ccccc2)NC(=O)[C@H](CCN)NC(=O)[C@@H](NC(=O)[C@H](CCN)NC(=O)[C@@H](NC(=O)CCCCCO)C(C)O)CCNC(=O)[C@H](C(C)O)NC(=O)[C@H](CCN)NC(=O)[C@H](CCN)NC1=O` (stereo partly drawn) [Example 21, 6-Hydroxyhexanoyl polymyxin B nonapeptide] (X9-[Thr(3ξ)][Dab][Dab][Dab][dF]L[Dab][Dab][Thr(3ξ)]; lactam 3-C), the MIC in assay [1] is 32 micrograms/mL; in assay [2], 1 micrograms/mL; in assay [4], 32 micrograms/mL; in assay [3], more than 32 micrograms/mL.
For `CNCCCC(=O)N[C@H](C(=O)N[C@@H](CCN)C(=O)N[C@H]1CCNC(=O)[C@H](C(C)O)NC(=O)[C@H](CCN)NC(=O)[C@H](CCN)NC(=O)[C@H](CC(C)C)NC(=O)[C@@H](Cc2ccccc2)NC(=O)[C@H](CCN)NC1=O)C(C)O` (stereo partly drawn) [Example 23, 4-(N-methylamino)-butanoyl polymyxin B nonapeptide] (NMeGABA-[Thr(3ξ)][Dab][Dab][Dab][dF]L[Dab][Dab][Thr(3ξ)]; lactam 3-C), the MIC in assay [1] stood at 0.5 micrograms/mL; in assay [2], 0.25 micrograms/mL; in assay [4], 0.5 micrograms/mL; in assay [3] it was 8 micrograms/mL.
Consider `CC(C)C[C@@H]1NC(=O)[C@@H](Cc2ccccc2)NC(=O)[C@H](CCN)NC(=O)[C@@H](NC(=O)[C@H](CCN)NC(=O)[C@@H](NC(=O)[C@H]2CC[C@H](N)CC2)C(C)O)CCNC(=O)[C@H](C(C)O)NC(=O)[C@H](CCN)NC(=O)[C@H](CCN)NC1=O` (stereo partly drawn) [Example 24, trans-4-aminocyclohexanecarbonyl polymyxin B nonapeptide] ({Achc(trans-4)}-[Thr(3ξ)][Dab][Dab][Dab][dF]L[Dab][Dab][Thr(3ξ)]; lactam 3-C), for which the MIC in assay [1] was 2 micrograms/mL; in assay [2] it was 0.125 micrograms/mL; in assay [4] it was 0.125 micrograms/mL; in assay [3], 2 micrograms/mL.
`CC(C)C[C@@H]1NC(=O)[C@@H](CC(C)C)NC(=O)[C@H](CCN)NC(=O)[C@@H](NC(=O)[C@H](CCN)NC(=O)[C@@H](NC(=O)CCCN)C(C)O)CCNC(=O)[C@H](C(C)O)NC(=O)[C@H](CCN)NC(=O)[C@H](CCN)NC1=O` (stereo partly drawn) [Example 25, 4-aminobutanoyl polymyxin E nonapeptide] (H-[GABA][Thr(3ξ)][Dab][Dab][Dab][dL]L[Dab][Dab][Thr(3ξ)]; lactam 4-C): the MIC in assay [1] amounted to 8 micrograms/mL; in assay [2], 4 micrograms/mL; in assay [4] it was 4 micrograms/mL; in assay [3], 16 micrograms/mL.
Regarding `CCCCCCC(O)C(=O)N[C@H](C(=O)N[C@@H](CCN)C(=O)N[C@H]1CCNC(=O)[C@H](C(C)O)NC(=O)[C@H](CCN)NC(=O)[C@H](CCN)NC(=O)[C@H](CC(C)C)NC(=O)[C@@H](CC(C)C)NC(=O)[C@H](CCN)NC1=O)C(C)O` (stereo partly drawn) [Example 26, 2-(R,S)-2-Hydroxyoctanoyl polymyxin E nonapeptide] (X1-[Thr(3ξ)][Dab][Dab][Dab][dL]L[Dab][Dab][Thr(3ξ)]; lactam 3-C), the MIC in assay [1] was 8 micrograms/mL; in assay [2], 4 micrograms/mL; in assay [4], 8 micrograms/mL; in assay [3], 16 micrograms/mL.
With `CC(C)C[C@@H]1NC(=O)[C@@H](Cc2ccccc2)NC(=O)[C@H](CCN)NC(=O)[C@@H](NC(=O)[C@H](CCN)NC(=O)[C@@H](NC(=O)C2CCC(N)CC2)C(C)O)CCNC(=O)[C@H](C(C)O)NC(=O)[C@H](CCN)NC(=O)[C@H](CCN)NC1=O` (stereo partly drawn) [Example 27, cis-4-aminocyclohexane carbonyl polymyxin B nonapeptide] (X7-[Thr(3ξ)][Dab][Dab][Dab][dF]L[Dab][Dab][Thr(3ξ)]; lactam 3-C), the MIC in assay [1] came out at 2 micrograms/mL; in assay [2], 0.125 micrograms/mL; in assay [4] it was 0.125 micrograms/mL; in assay [3], 0.5 micrograms/mL.
`CCCCCCC(N)C(=O)N[C@H](C(=O)N[C@@H](CCN)C(=O)N[C@H]1CCNC(=O)[C@H](C(C)O)NC(=O)[C@H](CCN)NC(=O)[C@H](CCN)NC(=O)[C@H](CC(C)C)NC(=O)[C@@H](Cc2ccccc2)NC(=O)[C@H](CCN)NC1=O)C(C)O` (stereo partly drawn) [Example 35, 2-(R,S)-2-Amino octanoyl polymyxin B nonapeptide] (H-[ξAoc(2)][Thr(3ξ)][Dab][Dab][Dab][dF]L[Dab][Dab][Thr(3ξ)]; lactam 4-C): the MIC in assay [2] came to 0.25 micrograms/mL; in assay [4], 1 micrograms/mL; in assay [3], 2 micrograms/mL.
